Reference: patent US9856273B2, “ETP derivatives” (priority 2012, dated 2018)

Legend:
[1] = system: p53 tumor suppressor; experiment: Western blot, induction of p53; type: cell-based, human; settings: A2058, DU145, A549 and SKOV3 cells (SKOV3 cells do not express p53 protein)
Procedure: Induction of p16, p53, p21waf1 and p27 (FIGS. 8 and 9): Western blot analyses were performed with specific antibodies. Briefly, human A2058 melanoma, DU145 prostate, A549 non-small lung and SKOV3 ovarian cancer cells were treated with ETP69. Whole-cell lysates (40 […]g) were resolved by SDS-PAGE. Primary specific antibodies to p53, p21^WAF1, p27(Kip1), p16 and Actin were diluted in PBS (pH 7.5) with 5% (w/v) nonfat milk and 0.1% (v/v) Tween-20 over night at 4° C. Horseradish peroxidase-conjugated secondary antibodies were incubated in PBS (pH 7.5) with 5% (w/v) nonfat milk and 0.1% (v/v) Tween-20 for 1 h at room temperature. Positive immuno-reactive proteins were detected using the ECL system (Pierce, Rockford, Ill.).

[2] = system: A549 non-small cell lung cancer cells; experiment: MTS cell viability assay, alone and in combination with multi-kinase inhibitor; type: cell-based; settings: Homo sapiens
Procedure: Cell Testing Assays with ETP Derivatives in Combination with DNMT Inhibitors and Multi-Kinase Inhibitors (See FIGS. 12A-12D, 13A-13C and 14A-14C): MTS assays were performed for cell viability for combination study with ETP69 plus DNMT inhibitors or mutikinase inhibitor. Human SKOV3 ovarian and A549 non-small cancer cells were seeded in 96-well plates (5000/well), incubated overnight at 37° C. in 5% CO2, and exposed to ETP69 plus azacitidine, decitabine or sorafenib for 48. Dimethyl sulfoxide (DMSO) was used as the vehicle control. Viable cell numbers were determined by tetrazolium conversion to its formazan dye and absorbance was measured at 490 nm using an automated ELISA plate reader. Each experiment was performed in quadruplicate.
IC50 Determinations for Ovarian, Liver, Pancreatic, CML, AML Cancer Cell Lines (See e.g. FIGS. 4, 6A-6C, 21, 22A, 22B, 23, 24A-24C, 25A, 25B and 34): MTS assays were performed for cell viability. […] Viable cell numbers were determined by tetrazolium conversion to its formazan dye and absorbance was measured at 490 nm using an automated ELISA plate reader. […]

[3] = system: A549 lung cancer SQ xenografts; type: in vivo, mouse; settings: A549 xenograft, 10 mg/kg orally once daily for 31 days
Procedure: Human A549 non-small lung cancer cells (5×10^6) were resuspended in serum-free DMEM medium and Matrigel (ration of 1:1) and subcutaneously injected into the flank of 5-6 weeks old female NOD/SCID/IL-2rg(ko)(NSG). When palpable tumor sizes reached at approximately 50 mm^3, mice were divided into two groups (vehicle=10, treatment=10). Then, ETP69 was orally administered at 10 mg/kg with vehicle (10% DMSO+30% Solutol+60% saline), once daily for 31 days. Tumor volumes were calculated by the formula 1/2a×b^2, where a is the long diameter, and b is the short diameter. Tumor volumes correlate with tumor weights. The statistical significance of group differences was analyzed using a Student's t-test with the two-tailed distribution. P values less than 0.05 were considered statistically significant.

SMILES: CN1C(=O)[C@@]23C[C@](C)(C#N)[C@H](c4ccc5c(c4)OCO5)N2C(=O)[C@]1(C)SS3 (racemic) [ETP69, Rac-(3S,6S,7S,8aS)-6-(Benzo[d][1,3]dioxol-5-yl)-2,3,7-trimethyl-1,4-dioxohexahydro-6H-3,8a-epidithiopyrrolo[1,2-a]pyrazine-7-carbonitrile]
- induction of p53 [1]: induces
- IC50 [2]: 100 nM
- toxicity symptoms [3]: no observable toxicity symptoms
- tumor volume [3]: decreased
- tumor weight [3]: decreased
